Values quoted from earlier work as cited in publication PMC9329312, “Decoding kinase-adverse event associations for small molecule kinase inhibitors” (Nature Communications, 2022).

Conditions: ref FAERS

## CCOc1cc2ncc(C#N)c(Nc3ccc(OCc4ccccn4)c(Cl)c3)c2cc1NC(=O)/C=C/CN(C)C [neratinib]
  Abdominal discomfort, % of Cases: 4.8%
  Abdominal distension, % of Cases: 3.4%
  Abdominal neoplasm, % of Cases: 0.075%
  Abdominal pain lower, % of Cases: 0.075%
  Abdominal pain upper, % of Cases: 6.0%
  Abdominal pain, % of Cases: 6.2%
  Abdominal tenderness, % of Cases: 0.15%
  Abnormal faeces, % of Cases: 0.15%
  Abscess, % of Cases: 0.15%
  Accidental overdose, % of Cases: 0.15%
  Acne, % of Cases: 1.5%
  Acute kidney injury, % of Cases: 0.6%
  Acute respiratory failure, % of Cases: 0.075%
  Adrenal mass, % of Cases: 0.075%
  Adrenocortical insufficiency acute, % of Cases: 0.075%
  Adverse drug reaction, % of Cases: 2.6%
  Adverse event, % of Cases: 0.075%
  Ageusia, % of Cases: 0.225%
  Alanine aminotransferase increased, % of Cases: 0.6%
  Alopecia, % of Cases: 0.5%
  Amenorrhoea, % of Cases: 0.075%
  Amnesia, % of Cases: 0.15%
  Anaemia, % of Cases: 0.6%
  Anal cancer metastatic, % of Cases: 0.075%
  Anal fissure, % of Cases: 0.075%
  Anal incontinence, % of Cases: 0.075%
  Anal inflammation, % of Cases: 0.075%
  Anger, % of Cases: 0.075%
  Animal bite, % of Cases: 0.075%
  Animal scratch, % of Cases: 0.075%
  Anxiety, % of Cases: 0.9%
  Aphasia, % of Cases: 0.075%
  Aphonia, % of Cases: 0.225%
  Aphthous ulcer, % of Cases: 0.075%
  Aplastic anaemia, % of Cases: 0.075%
  Appendicitis perforated, % of Cases: 0.075%
  Appendicitis, % of Cases: 0.15%
  Appetite disorder, % of Cases: 0.15%
  Arthralgia, % of Cases: 2.4%
  Arthritis, % of Cases: 0.375%
  Ascites, % of Cases: 0.225%
  Aspartate aminotransferase increased, % of Cases: 0.3%
  Aspergillus infection, % of Cases: 0.075%
  Asthenia, % of Cases: 4.1%
  Asthenopia, % of Cases: 0.075%
  Asthma, % of Cases: 0.15%
  Astigmatism, % of Cases: 0.075%
  Atrial fibrillation, % of Cases: 0.075%
  Back pain, % of Cases: 0.9%
  Bacterial infection, % of Cases: 0.075%
  Balance disorder, % of Cases: 0.225%
  Biliary cirrhosis, % of Cases: 0.075%
  Bladder dilatation, % of Cases: 0.075%
  Bladder spasm, % of Cases: 0.225%
  Blister, % of Cases: 0.15%
  Blood alkaline phosphatase increased, % of Cases: 0.15%
  Blood bilirubin increased, % of Cases: 0.15%
  Blood calcium decreased, % of Cases: 0.075%
  Blood creatinine abnormal, % of Cases: 0.075%
  Blood creatinine increased, % of Cases: 0.8%
  Blood electrolytes decreased, % of Cases: 0.15%
  Blood glucose decreased, % of Cases: 0.225%
  Blood glucose fluctuation, % of Cases: 0.075%
  Blood glucose increased, % of Cases: 0.075%
  Blood iron decreased, % of Cases: 0.225%
  Blood magnesium decreased, % of Cases: 0.3%
  Blood potassium decreased, % of Cases: 1.7%
  Blood pressure abnormal, % of Cases: 0.075%
  Blood pressure decreased, % of Cases: 0.225%
  Blood pressure increased, % of Cases: 0.6%
  Blood sodium decreased, % of Cases: 0.15%
  Blood urea increased, % of Cases: 0.3%
  Blood urea nitrogen/creatinine ratio increased, % of Cases: 0.075%
  Blood urine present, % of Cases: 0.15%
  Bone cancer, % of Cases: 0.075%
  Bone pain, % of Cases: 0.75%
  Bowel movement irregularity, % of Cases: 0.075%
  Brain cancer metastatic, % of Cases: 0.15%
  Brain natriuretic peptide increased, % of Cases: 0.075%
  Brain neoplasm malignant, % of Cases: 0.075%
  Brain neoplasm, % of Cases: 0.3%
  Brain oedema, % of Cases: 0.075%
  Brain operation, % of Cases: 0.15%
  Breast calcifications, % of Cases: 0.075%
  Breast cancer metastatic, % of Cases: 2.3%
  Breast cancer stage IV, % of Cases: 0.45%
  Breast cancer, % of Cases: 0.15%
  Breast cellulitis, % of Cases: 0.15%
  Breast disorder, % of Cases: 0.075%
  Breast haemorrhage, % of Cases: 0.075%
  Breast pain, % of Cases: 0.15%
  Breast reconstruction, % of Cases: 0.375%
  Breast swelling, % of Cases: 0.075%
  Brief resolved unexplained event, % of Cases: 0.075%
  Bronchitis, % of Cases: 0.075%
  Bundle branch block left, % of Cases: 0.075%
  Burning sensation, % of Cases: 0.3%
  COVID-19, % of Cases: 0.15%
  Cachexia, % of Cases: 0.075%
  Cancer pain, % of Cases: 0.075%
  Candida infection, % of Cases: 0.15%
  Carbohydrate antigen 15-3 increased, % of Cases: 0.075%
  Cardiac disorder, % of Cases: 0.075%
  Cardiac failure congestive, % of Cases: 0.225%
  Cardiac operation, % of Cases: 0.075%
  Cardio-respiratory arrest, % of Cases: 0.075%
  Catatonia, % of Cases: 0.075%
  Cellulitis staphylococcal, % of Cases: 0.075%
  Cellulitis, % of Cases: 0.15%
  Central nervous system haemorrhage, % of Cases: 0.075%
  Central venous catheter removal, % of Cases: 0.075%
  Central venous catheterisation, % of Cases: 0.075%
  Cerebral cyst, % of Cases: 0.075%
  Cerebrovascular accident, % of Cases: 0.3%
  Chapped lips, % of Cases: 0.075%
  Chest discomfort, % of Cases: 0.15%
  Chest pain, % of Cases: 0.6%
  Chest wall tumour, % of Cases: 0.075%
  Chills, % of Cases: 0.5%
  Cholangiocarcinoma, % of Cases: 0.075%
  Cholecystectomy, % of Cases: 0.075%
  Cholecystitis, % of Cases: 0.075%
  Cholelithiasis, % of Cases: 0.15%
  Chromaturia, % of Cases: 0.15%
  Chronic fatigue syndrome, % of Cases: 0.075%
  Chronic hepatic failure, % of Cases: 0.075%
  Clostridium difficile colitis, % of Cases: 0.075%
  Clostridium difficile infection, % of Cases: 0.225%
  Coagulopathy, % of Cases: 0.075%
  Cognitive disorder, % of Cases: 0.15%
  Colectomy, % of Cases: 0.075%
  Colitis ulcerative, % of Cases: 0.075%
  Colitis, % of Cases: 0.3%
  Colon cancer, % of Cases: 0.15%
  Coma, % of Cases: 0.075%
  Completed suicide, % of Cases: 0.075%
  Condition aggravated, % of Cases: 0.075%
  Confusional state, % of Cases: 0.8%
  Conjunctivitis, % of Cases: 0.075%
  Constipation, % of Cases: 15.5%
  Contusion, % of Cases: 0.225%
  Cough, % of Cases: 1.4%
  Critical illness, % of Cases: 0.075%
  Cyst, % of Cases: 0.075%
  Cystitis, % of Cases: 0.375%
  Deafness bilateral, % of Cases: 0.075%
  Death, % of Cases: 9.6%
  Decreased appetite, % of Cases: 11.9%
  Deep vein thrombosis, % of Cases: 0.075%
  Dehydration, % of Cases: 6.6%
  Dementia, % of Cases: 0.075%
  Dental operation, % of Cases: 0.075%
  Depressed mood, % of Cases: 0.3%
  Depression, % of Cases: 0.75%
  Dermatitis acneiform, % of Cases: 0.6%
  Dermatitis contact, % of Cases: 0.075%
  Device related infection, % of Cases: 0.225%
  Diabetic ketoacidosis, % of Cases: 0.075%
  Diarrhoea haemorrhagic, % of Cases: 0.225%
  Diarrhoea, % of Cases: 61.8%
  Diplegia, % of Cases: 0.075%
  Diplopia, % of Cases: 0.075%
  Discomfort, % of Cases: 0.075%
  Disease progression, % of Cases: 1.7%
  Disorientation, % of Cases: 0.075%
  Disturbance in attention, % of Cases: 0.075%
  Diverticulitis, % of Cases: 0.225%
  Dizziness, % of Cases: 4.6%
  Drug eruption, % of Cases: 0.075%
  Drug hypersensitivity, % of Cases: 0.075%
  Drug ineffective, % of Cases: 0.45%
  Drug interaction, % of Cases: 0.075%
  Drug intolerance, % of Cases: 1.0%
